{"source": "patent US5840714A", "about": "“Inclusion complexes of racemic ibuproxam and of optically active ibuproxam with cyclodextrin derivatives, pharmaceutical preparations containing said inclusion complexes and methods for using same” (priority 1993, dated 1998)", "key": {"[1]": {"conditions": "irrespective of application route; cited from earlier work"}, "[2]": {"conditions": "cited from earlier work"}, "[3]": {"conditions": "in vivo; cited from earlier work"}, "[4]": {"conditions": "cited from earlier work", "remark": "listed apart in the source"}, "gastric mucous membrane": {"test_system": "gastric mucous membrane", "test": "Effect on gastric mucous membrane (irritation)", "format": "in vivo, rats", "procedure": "[…] After 4 hours its effect on irritation of gastric mucous membrane was measured in a way that the rate of bleeding in stomach and frequency of ulcers was determined."}, "in vivo": {"test": "in vivo", "conditions": "po", "procedure": "(§1) In the test mice of Han-NMRI strain of both sexes, weight 19 to 24 g, and female rats of Han-WISTAR strain, weight 220 to 250 g, were used. The active substance was suspended in arachis oil and applied perorally. The volume of the applied suspension was 0.2 ml/20 g body weight in mice and 0.2 ml/200 g body weight in rats. Before the test the animals were fasted for 24 hours and after application, water and food were available ad libitum."}, "mice of Han-NMRI strain": {"test_system": "mice of Han-NMRI strain", "test": "in vivo", "conditions": "for comparative toxicity (in words): peroral, mice and rats", "procedure": "as §1"}, "[5]": {"test_system": "oedema caused by carrageenin", "test": "Antiinflammatory action in vivo (carrageenin oedema)", "parameters": "species or system rats", "procedure": "Antiinflammatory action was measured in vivo by the inhibition of oedema caused by carrageenin.\nRats, which were fasted overnight, were given 100 mg/kg of the test substance 1 hour before the injection of 0.1 ml 1% carrageenin suspension."}, "[6]": {"test_system": "convulsions caused by phenylbenzoquinone", "test": "Alleviation of pain (phenylbenzoquinone-induced convulsions)", "format": "in vivo, female mice", "conditions": "Mus musculus, po, read-out: ED50 (50% pain protection); 95% confidence limit; peroral, 30 minutes before intraperitoneal phenylbenzoquinone", "method": "The effect of alleviating pain was tested with the number of convulsions caused by phenylbenzoquinone. Female mice, weight 15 to 22 g, were fasted before the test for 24 hours and after the application water and food were ad libitum. 30 minutes after peroral introduction of the suspension of active substance in 10% gum arabic solution, individual mice were intraperitoneally administered 0.25 ml of 0.02% phenylbenzoquinone solution. Only the vehicle was applied to a control group of animals. The number of phenylbenzoquinone-induced convulsions was pursued 5 to 20 minutes after the application thereof.\nED50 calculated dosis of the active substance in mg per 1 kg of the\nanimal, which dosis caused a 50% pain protection"}, "[7]": {"conditions": "mouse, in vivo, 2000 mg/kg, % of deaths after 15 days, female mice, 2000 mg/kg peroral"}, "[8]": {"conditions": "mouse, in vivo, 2000 mg/kg, % of deaths after 15 days, male mice, 2000 mg/kg peroral"}, "[9]": {"conditions": "mouse, in vivo, 2000 mg/kg, % of deaths in 24 h, female mice, 2000 mg/kg peroral"}, "[10]": {"conditions": "mouse, in vivo, 2000 mg/kg, % of deaths in 24 h, male mice, 2000 mg/kg peroral"}}, "data": [{"smiles": "CC(C)Cc1ccc(C(C)C(=O)NO)cc1", "note": "(racemic) [racemic ibuproxam, 2-(4-isobutylphenyl)-propiohydroxamic acid]", "values": [{"measurement": "metabolic conversion into ibuprofen (in words)", "setting": "[1]", "result": "rapid and almost complete metabolic conversion into ibuprofen"}, {"measurement": "LD50 comparison at parenteral application", "setting": "[2]", "result": "the same for both substances"}, {"measurement": "analgetic, antipyretic and antiinflammatory action (in words)", "setting": "[3]", "result": "same analgetic, antipyretic and antiinflammatory action of both substances"}, {"measurement": "bioavailability in comparison with ibuprofen (in words)", "setting": "[3]", "result": "better bioavailability of ibuproxam in comparison with ibuprofen"}, {"measurement": "toxicity for the mucous membrane of the alimentary tract (in words)", "setting": "[3]", "result": "less toxic for the mucous membrane of the alimentary tract"}]}, {"smiles": "CC(C)Cc1ccc([C@@H](C)C(=O)O)cc1", "note": "[R-(-)-enantiomer]", "values": [{"measurement": "conversion to S-(+)-enantiomer in humans", "setting": "[4]; humans", "result": "only one third thereof, is converted to S-(+)-enantiomer"}]}, {"smiles": "CC(C)Cc1ccc([C@H](C)C(=O)O)cc1", "note": "[S-(+)-ibuprofen]", "values": [{"measurement": "irritation of gastric mucous membrane", "setting": "gastric mucous membrane; rat, in vivo, 30 mg/kg", "result": 12}, {"measurement": "pharmacological activity (in words)", "setting": "[4]; in vivo", "result": "pharmacologically active"}, {"measurement": "mortality at 360 h", "setting": "in vivo; mouse, in vivo, 1000 mg/kg, % of deaths after 15 days, female mice, 1000 mg/kg peroral", "result": 10, "unit": "%"}, {"measurement": "mortality at 24 h", "setting": "in vivo; mouse, in vivo, 1000 mg/kg, % of deaths in 24 h, female mice, 1000 mg/kg peroral", "result": 10, "unit": "%"}, {"measurement": "mortality at 360 h", "setting": "in vivo; [7]", "result": 10, "unit": "%"}, {"measurement": "mortality at 360 h", "setting": "in vivo; [8]", "result": 30, "unit": "%"}, {"measurement": "mortality at 24 h", "setting": "in vivo; [9]", "result": 10, "unit": "%"}, {"measurement": "mortality at 24 h", "setting": "in vivo; [10]", "result": 0, "unit": "%"}, {"measurement": "mortality at 48 h", "setting": "in vivo; mouse, in vivo, 2000 mg/kg, animals died in 48 hours, male mice, 2000 mg/kg peroral", "result": 30, "unit": "%"}, {"measurement": "LD50", "setting": "in vivo; rat", "result": "< 1000", "unit": "mg/kg"}, {"measurement": "mortality at 24 h", "setting": "in vivo; rat, 1000 mg/kg", "result": 0, "unit": "%"}, {"measurement": "mortality at 144 h", "setting": "in vivo; rat, 1000 mg/kg", "result": 83.3, "unit": "%"}, {"measurement": "mortality at 360 h", "setting": "in vivo; rat, 1000 mg/kg", "result": 83.3, "unit": "%"}, {"measurement": "comparative toxicity (in words)", "setting": "mice of Han-NMRI strain", "result": "acute toxicity of S-(+)-ibuprofen in all test animals is greater than acute toxicity of S-(+)-ibuproxam"}]}, {"smiles": "CC(C)Cc1ccc([C@H](C)C(=O)NO)cc1", "note": "[S-(+)-ibuproxam, S-(+)-2-(4-isobutylphenyl)-propiohydroxamic acid]", "values": [{"measurement": "antiinflammatory action", "setting": "[5]; 100 mg/kg peroral, 1 hour before carrageenin, oedema inhibition 3 hours after carrageenin", "result": 37}, {"measurement": "comparative antiinflammatory action (in words)", "setting": "[5]; rat, in vivo", "result": "greater antiinflammatory action than free racemic ibuproxam"}, {"measurement": "irritation of gastric mucous membrane", "setting": "gastric mucous membrane; dose 30 mg/kg peroral, rate of bleeding and frequency of ulcers after 4 hours", "result": 0}, {"measurement": "irritating effect on gastric mucous membrane (in words)", "setting": "gastric mucous membrane; rat, in vivo", "result": "did not exhibit an irritating effect on gastric mucous membrane"}, {"measurement": "mortality at 360 h", "setting": "in vivo; [7]", "result": 0, "unit": "%"}, {"measurement": "mortality at 360 h", "setting": "in vivo; [8]", "result": 0, "unit": "%"}, {"measurement": "mortality at 24 h", "setting": "in vivo; [9]", "result": 0, "unit": "%"}, {"measurement": "mortality at 24 h", "setting": "in vivo; [10]", "result": 0, "unit": "%"}, {"measurement": "mortality at 24 h", "setting": "in vivo; rat, 1000 mg/kg", "result": 0, "unit": "%"}, {"measurement": "mortality at 360 h", "setting": "in vivo; rat, 1000 mg/kg", "result": 50, "unit": "%"}, {"measurement": "mortality at 360 h", "setting": "in vivo; rat, 2000 mg/kg", "result": 50, "unit": "%"}, {"measurement": "animals died (in words)", "setting": "mice of Han-NMRI strain; female mice, 1000 mg/kg or 2000 mg/kg peroral, 15 days", "result": "no animal died"}, {"measurement": "animals died (in words)", "setting": "mice of Han-NMRI strain; male mice, 2000 mg/kg peroral", "result": "no animal died"}, {"measurement": "animals died in 15 days (in words)", "setting": "mice of Han-NMRI strain; mice of both sexes, 2000 mg/kg peroral", "result": "no animal died in 15 days"}, {"measurement": "comparative toxicity (in words)", "setting": "mice of Han-NMRI strain", "result": "less toxic than S-(+)-ibuprofen"}, {"measurement": "ED50", "setting": "[6]", "result": 73, "unit": "mg/kg"}]}, {"smiles": "CC(C)Cc1ccc(C(C)C(=O)O)cc1", "note": "(centres unmarked) [ibuprofen, 2-(4-isobutylphenyl)-propionic acid]", "values": [{"measurement": "LD50 comparison at parenteral application", "setting": "[2]", "result": "the same for both substances"}, {"measurement": "analgetic, antipyretic and antiinflammatory action (in words)", "setting": "[3]", "result": "same analgetic, antipyretic and antiinflammatory action of both substances"}]}]}
